Where a name gives a salt, the structure may show the parent alone. Read-outs that look alike come from different tables or passages of the source.

One test concerns the target hSTING(R232) (Homo sapiens, UniProt Q86WV6, H232R). In words: Luciferase reporter assay in HEK293T-hSTING-Luciferase cells, R232 (wild type) human STING. The settings on record: 20 hr stimulation, read-out: R232 human activity (EC50 range). The class given is cell-based. In a few lines:
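Clonal HEK293T cells stably expressing STING from a pUNO-1 plasmid plus an ISRE/ISG54-driven secreted luciferase reporter; 5×10^5 cells stimulated with compound for 20 hr. Supernatant luciferase read by luminescence, giving fold-induction over baseline and EC50.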
In general terms: Reporter assays use an easily measured gene product as a stand-in for the process of interest.

For test [1], the target named is cynomolgus monkey STING protein (Macaca fascicularis, UniProt A0A2R3XZA6). In words: Luciferase reporter assay, cynomolgus monkey STING overexpressed in HEK293T cells. The class given is cell-based. The protocol: 5×10^5 clonally selected HEK293T-hSTING-Luciferase cells were seeded in 384-well plates in growth medium and stimulated with novel compounds. After 20 hr of stimulation supernatant were removed and secretary reporter gene activity were measured using the Quanti-Luc detection system (Invivogen) on a Spectramax i3X luminometer.
In the tables below, EC50 value ranges for exemplary compounds are given.
Selected compounds were further tested against cynomolgus monkey STING protein overexpressed in HEK293T cells.

The mark [2] stands for this setting: cynomolgus monkey STING overexpressed in HEK293T cells, read-out: Cynomolgus monkey STING activity (EC50 range).

Sequence of cynomolgus monkey STING protein (A0A2R3XZA6 entry or part of it): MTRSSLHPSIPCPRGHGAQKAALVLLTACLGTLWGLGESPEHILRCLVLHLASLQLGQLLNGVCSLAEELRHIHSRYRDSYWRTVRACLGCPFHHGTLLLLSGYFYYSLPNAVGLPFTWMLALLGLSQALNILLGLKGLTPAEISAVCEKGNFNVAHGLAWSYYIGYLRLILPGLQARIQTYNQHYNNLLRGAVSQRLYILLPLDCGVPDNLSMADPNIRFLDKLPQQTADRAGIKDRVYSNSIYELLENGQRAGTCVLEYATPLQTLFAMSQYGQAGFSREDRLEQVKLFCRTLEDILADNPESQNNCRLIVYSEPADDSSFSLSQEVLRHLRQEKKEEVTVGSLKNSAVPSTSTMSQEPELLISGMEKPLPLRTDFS
Sequence of hSTING(R232) (Q86WV6 whole entry H232R): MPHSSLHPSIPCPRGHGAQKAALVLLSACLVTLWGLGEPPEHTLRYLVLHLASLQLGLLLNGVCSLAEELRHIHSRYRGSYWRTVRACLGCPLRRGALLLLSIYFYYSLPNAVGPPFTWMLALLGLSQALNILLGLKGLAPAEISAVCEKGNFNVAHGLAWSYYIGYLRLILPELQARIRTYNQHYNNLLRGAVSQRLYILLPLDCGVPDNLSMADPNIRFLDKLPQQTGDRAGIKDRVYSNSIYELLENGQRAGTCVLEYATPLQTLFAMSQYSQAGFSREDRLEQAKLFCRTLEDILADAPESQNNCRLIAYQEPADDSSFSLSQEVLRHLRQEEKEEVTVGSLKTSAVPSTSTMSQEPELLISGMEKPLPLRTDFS

As a reminder, the EC50 is the concentration giving half of the maximal effect. As for `COc1cc(F)c(CN2C(=O)N(C)[C@@H](C)c3ccc(C(=O)NCc4c(F)cc(F)cc4F)cc32)c(F)c1` [Example 79, (S)-1-(2,6-Difluoro-4-methoxybenzyl)-3,4-dimethyl-2-oxo-N-(2,4,6-trifluorobenzyl)-1,2,3,4-tetrahydroquinazoline-7-carboxamide], the half-maximal effective concentration (EC50) (at hSTING(R232); in test [1] (setting [2])) was under 1000 nM each time.
For the compound `C[C@H]1c2ccc(C(=O)NCc3c(F)cc(F)cc3F)cc2N(Cc2c(F)cc(OCCCOP(=O)(O)O)cc2F)C(=O)N1C` [Example 82, (S)-3-(4-((3,4-dimethyl-2-oxo-7-((2,4,6-trifluorobenzyl)carbamoyl)-3,4-dihydroquinazolin-1(2H)-yl)methyl)-3,5-difluorophenoxy)propyl dihydrogen phosphate], the concentration giving a half-maximal response (EC50) (at hSTING(R232); in test [1] (setting [2])) was under 1000 nM throughout.
`C[C@H]1c2ccc(C(=O)NCc3c(F)cc(F)cc3F)cc2N(Cc2c(F)cc(OCOP(=O)(O)O)cc2F)C(=O)N1C` [Example 83, (S)-(4-((3,4-dimethyl-2-oxo-7-((2,4,6-trifluorobenzyl)carbamoyl)-3,4-dihydroquinazolin-1(2H)-yl)methyl)-3,5-difluorophenoxy)methyl dihydrogen phosphate]: the EC50 (at hSTING(R232); in test [1] (setting [2])) was under 1000 nM in each case.
In the case of `C[C@H]1c2ccc(C(=O)NCc3c(F)cc(F)cc3F)cc2N(Cc2c(F)cc(OP(=O)(O)O)cc2F)C(=O)N1C` [Example 84, (S)-4-((3,4-Dimethyl-2-oxo-7-((2,4,6-trifluorobenzyl)carbamoyl)-3,4-dihydroquinazolin-1(2H)-yl)methyl)-3,5-difluorophenyl dihydrogen phosphate], the EC50 (on hSTING(R232); in test [1] (setting [2])) was under 1000 nM in each case.
Take `C[C@H]1c2ccc(C(=O)NCc3c(F)cc(F)cc3F)cc2N(Cc2c(F)cc(OC(=O)N(C)CCC(=O)OCc3ccccc3)cc2F)C(=O)N1C` [Example 86, (S)-Benzyl-3-(((4-((3,4-dimethyl-2-oxo-7-((2,4,6-trifluorobenzyl)carbamoyl)-3,4-dihydroquinazolin-1(2H)-yl)methyl)-3,5-difluorophenoxy)carbonyl)(methyl)amino)propanoate]: the concentration for a half-maximal effect (EC50) (at hSTING(R232); in test [1]) was 1000 to 10000 nM throughout.
Regarding `C[C@H]1c2ccc(C(=O)NCc3c(F)cc(F)cc3F)cc2N(Cc2c(F)ccc(OP(=O)(O)O)c2Cl)C(=O)N1C` [Example 89, (S)-2-Chloro-3-((3,4-dimethyl-2-oxo-7-((2,4,6-trifluorobenzyl)carbamoyl)-3,4-dihydroquinazolin-1(2H)-yl)methyl-4-fluorophenyldihydrogen phosphate], the EC50 (at hSTING(R232); in test [1] (setting [2])) was under 1000 nM throughout.
For the compound `C[C@H]1c2ccc(C(=O)NCc3c(F)cc(F)cc3F)cc2N(Cc2c(F)ccc(OCOP(=O)(O)O)c2Cl)C(=O)N1C` [Example 90, (S)-(2-Chloro-3-((3,4-dimethyl-2-oxo-7-((2,4,6-trifluorobenzyl)carbamoyl)-3,4-dihydroquinazolin-1(2H)-yl)methyl)-4-fluorophenoxy)methyl dihydrogen phosphate], the concentration giving a half-maximal response (EC50) (on hSTING(R232); in test [1] (setting [2])) was under 1000 nM each time.
In the case of `C[C@H]1c2ccc(C(=O)NCc3c(F)cc(F)cc3F)cc2N(Cc2c(F)cc(F)cc2OCCCOP(=O)(O)O)C(=O)N1C` [Example 94, (S)-3-(2-((3,4-dimethyl-2-oxo-7-((2,4,6-trifluorobenzyl)carbamoyl)-3,4-dihydroquinazolin-1(2H)-yl)methyl)-3,5-difluorophenoxy)propyl dihydrogen phosphate], the half-maximal effective concentration (EC50) on hSTING(R232) is under 1000 nM; in test [1] (setting [2]), over 10000 nM.
The matching figures for `C[C@H]1c2ccc(C(=O)NCc3c(F)cc(F)cc3F)cc2N(Cc2c(F)ccc(OCCOP(=O)(O)O)c2Cl)C(=O)N1C` [Example 95, (S)-2-(2-chloro-3-((3,4-dimethyl-2-oxo-7-((2,4,6-trifluorobenzyl)carbamoyl)-3,4-dihydroquinazolin-1(2H)-yl)methyl)-4-fluorophenoxy)ethyl dihydrogen phosphate]: under 1000 nM and over 10000 nM.
The matching figures for `C[C@H]1c2ccc(C(=O)NCc3c(F)cc(F)cc3F)cc2N(Cc2c(F)ccc(OCCCOP(=O)(O)O)c2Cl)C(=O)N1C` [Example 96, (S)-3-(2-chloro-3-((3,4-dimethyl-2-oxo-7-((2,4,6-trifluorobenzyl)carbamoyl)-3,4-dihydroquinazolin-1(2H)-yl)methyl)-4-fluorophenoxy)propyl dihydrogen phosphate]: under 1000 nM and over 10000 nM.
The matching figures for `C[C@H]1c2ccc(C(=O)NCc3c(F)cc(F)cc3F)cc2N(Cc2c(F)cc(OCCOP(=O)(O)O)cc2F)C(=O)N1C` [Example 97, (S)-2-(4-((3,4-dimethyl-2-oxo-7-((2,4,6-trifluorobenzyl)carbamoyl)-3,4-dihydroquinazolin-1(2H)-yl)methyl)-3,5-difluorophenoxy)ethyl dihydrogen phosphate]: under 1000 nM and under 1000 nM.
On to `C[C@H]1c2ccc(C(=O)NCc3c(F)cc(OP(=O)(O)O)cc3F)cc2N(Cc2c(F)cccc2Cl)C(=O)N1C` [Example 101, (S)-4-((1-(2-chloro-6-fluorobenzyl)-3,4-dimethyl-2-oxo-1,2,3,4-tetrahydroqinazoline-7-carboxamido)methyl)-3,5-difluorophenyl dihydrogen phosphate], for which the EC50 (at hSTING(R232); in test [1] (setting [2])) was 1000 to 10000 nM in each case.
For the compound `C[C@H]1c2ccc(C(=O)NCc3c(F)cc(F)cc3F)cc2N(Cc2cc(O)c(O)cc2F)C(=O)N1C` [Example 274, (S)-1-(2-fluoro-4,5-dihydroxybenzyl)-3,4-dimethyl-2-oxo-N-(2,4,6-trifluorobenzyl)-1,2,3,4-tetrahydroquinazoline-7-carboxamide], the half-maximal effective concentration (EC50) at hSTING(R232) lay in the range of 1000 to 10000 nM.
The same measure, in the same setting: under `C[C@H]1c2ccc(C(=O)NCc3cccc(OCCO)c3F)cc2N(Cc2c(F)cccc2Cl)C(=O)N1C` [Example 276, (S)-1-(2-chloro-6-fluorobenzyl)-N-(2-fluoro-3-(2-hydroxyethoxy)benzyl)-3,4-dimethyl-2-oxo-1,2,3,4-tetrahydroquinazoline-7-carboxamide] stands over 10000 nM.
As to `C[C@H]1c2ccc(C(=O)NCc3c(F)cc(F)cc3F)cc2N(Cc2c(F)cc(OCC(=O)O)cc2F)C(=O)N1C` [Example 277, (S)-2-(4-((3,4-dimethyl-2-oxo-7-((2,4,6-trifluorobenzyl)carbamoyl)-3,4-dihydroquinazolin-1(2H)-yl)methyl)-3,5-difluorophenoxy)acetic acid], on hSTING(R232), the EC50 was over 10000 nM.
In the case of `C[C@H]1c2ccc(C(=O)NCc3c(F)cc(F)cc3F)cc2N(Cc2c(F)cccc2NCCCO)C(=O)N1C` [Example 278, (S)-1-(2-fluoro-6-((3-hydroxypropyl)amino)benzyl)-3,4-dimethyl-2-oxo-N-(2,4,6-trifluorobenzyl)-1,2,3,4-tetrahydroquinazoline-7-carboxamide], on hSTING(R232), the concentration for a half-maximal effect (EC50) is under 1000 nM.
As for `COc1cccc(CN2C(=O)N(C)[C@@H](C)c3ccc(C(=O)NCc4c(F)cc(F)cc4F)cc32)c1F` [Example 279, (S)-1-(2-fluoro-3-methoxybenzyl)-3,4-dimethyl-2-oxo-N-(2,4,6-trifluorobenzyl)-1,2,3,4-tetrahydroquinazoline-7-carboxamide], the EC50 on hSTING(R232) is under 1000 nM.
Consider `C[C@H]1c2ccc(C(=O)NCc3c(F)cc(F)cc3F)cc2N(Cc2c(F)cc(OCCCN)cc2F)C(=O)N1C` [Example 280, (S)-1-(4-(3-aminopropoxy)-2,6-difluorobenzyl)-3,4-dimethyl-2-oxo-N-(2,4,6-trifluorobenzyl)-1,2,3,4-tetrahydroquinazoline-7-carboxamide], for which the EC50 on hSTING(R232) is under 1000 nM.
Still for that read-out and setting: under `C[C@H]1c2ccc(C(=O)NCc3ccc(F)cc3OCCO)cc2N(Cc2c(F)cccc2Cl)C(=O)N1C` [Example 284, (S)-1-(2-chloro-6-fluorobenzyl)-N-(4-fluoro-2-(2-hydroxyethoxy)benzyl)-3,4-dimethyl-2-oxo-1,2,3,4-tetrahydroquinazoline-7-carboxamide] stands over 10000 nM.
On the same count and under the same terms, under `C[C@H]1c2ccc(C(=O)NCc3c(F)cc(F)cc3F)cc2N(Cc2c(Cl)c[nH]c(=O)c2F)C(=O)N1C` [Example 287, (S)-1-((5-chloro-3-fluoro-2-oxo-1,2-dihydropyridin-4-yl)methyl)-3,4-dimethyl-2-oxo-N-(2,4,6-trifluorobenzyl)-1,2,3,4-tetrahydroquinazoline-7-carboxamide] stands over 10000 nM; under `C[C@H]1c2ccc(C(=O)NCc3c(F)cc(F)cc3F)cc2N(Cc2c(Cl)cn(C)c(=O)c2F)C(=O)N1C` [Example 288, (S)-1-((5-chloro-3-fluoro-1-methyl-2-oxo-1,2-dihydropyridin-4-yl)methyl)3,4-dimethyl-2-oxo-N-(2,4,6-trifluorobenzyl)-1,2,3,4-tetrahydroquinazoline-7-carboxamide], 1000 to 10000 nM.
The same measure, in the same setting: in the case of `C[C@H]1c2ccc(C(=O)NCc3c(F)cc(F)cc3F)cc2N(Cc2c(F)cc(OCCN)cc2F)C(=O)N1C` [Example 292, (S)-1-(4-(2-aminoethoxy)-2,6-difluorobenzyl)-3,4-dimethyl-2-oxo-N-(2,4,6-trifluorobenzyl)-1,2,3,4-tetrahydroquinazoline-7-carboxamide hydrochloride] it was under 1000 nM; in that of `C[C@H]1c2ccc(C(=O)NCc3c(F)cc(F)cc3F)cc2N(Cc2c(Cl)cn(CCO)c(=O)c2F)C(=O)N1C` [Example 297, (S)-1-((5-chloro-3-fluoro-1-(2-hydroxyethyl)-2-oxo-1,2-dihydropyridin-4-yl)methyl)-3,4-dimethyl-2-oxo-N-(2,4,6-trifluorobenzyl)-1,2,3,4-tetrahydroquinazoline-7-carboxamide], over 10000 nM.

The values above are taken from patent US11571423B2, “Small molecule modulators of human sting” (Curadev Pharma Limited, priority 2017, dated 2023).
